Reference: ChEMBL document CHEMBL1201862, “PubChem BioAssay data set” (2004)
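Grown in 96-well plates, cells were treated for 48 hours with each compound at five concentrations. Insufficient inhibition: endpoint recorded as highest concentration tested. At the GI50, growth is halved.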 The source made the active and inactive calls. Cut-off read from the data, not from the text of the source: active = GI50 up to about 1.1 µM and inactive = higher.

Columns and labels:
Experiment in all cases: NCI-60 cell line screen, 48 h
[1] = test system: MDA-N
[2] = test system: SF-539
[3] = test system: MDA-MB-435
[4] = test system: UO-31
[5] = test system: HT-29
[6] = test system: HL-60
[7] = test system: CAKI-1
[8] = test system: MDA-MB-231
[9] = test system: SK-MEL-5
[10] = test system: SK-MEL-2
[11] = test system: NCI-H522
[12] = test system: U-251
[13] = test system: HOP-62
[14] = test system: NCI-H460
[15] = test system: SNB-75
[16] = test system: SF-268
[17] = test system: HOP-92
[18] = test system: A549
[19] = test system: M14
[20] = test system: HCC 2998

Measured: GI50

COc1cccc(NC(=O)CC(=O)NN)c1
inactive: [1] > 100 µM | [2] > 100 µM | [3] > 100 µM | [4] > 100 µM | [5] > 100 µM | [6] > 100 µM | [7] > 100 µM | [8] > 100 µM | [9] > 100 µM | [10] > 100 µM | [11] > 100 µM | [12] > 100 µM | [13] > 100 µM | [14] > 100 µM | [15] > 100 µM | [16] > 100 µM | [17] > 100 µM | [18] > 100 µM

CCCC1(CCC)c2cc(/C=N\O)ccc2-c2ccc(-c3ccc(C(C)(C)C)cc3)cc21
inactive: [1] 57.3 µM | [2] > 100 µM | [4] > 100 µM | [5] > 100 µM | [6] 20.7 µM | [7] > 100 µM | [8] 19.5 µM | [19] 50.2 µM | [9] 80.4 µM | [10] 29 µM | [12] > 10 µM | [13] > 100 µM | [14] 38.5 µM | [15] 67.1 µM | [16] 56 µM | [17] 64.9 µM | [18] 53.7 µM | [20] 42.6 µM

O=C1C2=C(SCCS2)C(=O)c2c(Sc3ccc(Cl)cc3)c(Sc3ccc(Cl)cc3)c(Sc3ccc(Cl)cc3)c(Sc3ccc(Cl)cc3)c21
inactive: [1] > 100 µM | [3] > 100 µM | [4] > 100 µM | [7] > 100 µM | [8] 32 µM | [19] 33.8 µM | [9] > 100 µM | [10] 41.9 µM | [12] 57.8 µM | [13] 42.7 µM | [14] > 100 µM | [15] 19.1 µM | [16] > 100 µM | [18] > 100 µM | [20] > 100 µM

NC1CC2NC3CCCCC3NC2CC1N (stereo unspecified)
inactive: [1] 43.8 µM | [2] 80.4 µM | [3] 36.1 µM | [4] 27 µM | [5] 27.4 µM | [6] 26.7 µM | [7] 35 µM | [8] 61.7 µM | [19] 67.9 µM | [9] 27.7 µM | [10] 50.1 µM | [11] 12.6 µM | [12] 28 µM | [14] 29 µM | [15] 25.1 µM | [16] 50.8 µM | [18] 58.3 µM | [20] 62.5 µM

CN1CN(c2ccccc2)C2(CCN(CC(C)(c3ccc(F)cc3)C3OCCCO3)CC2)C1=O (stereo unspecified)
inactive: [1] 17.3 µM | [2] 13.2 µM | [3] 10.9 µM | [4] 2.32 µM | [5] 10.6 µM | [6] 14.7 µM | [7] 19.7 µM | [8] 24.2 µM | [19] 16.9 µM | [9] 15.7 µM | [11] 16.8 µM | [12] 12.8 µM | [13] 16.6 µM | [15] 18.7 µM | [16] 17.8 µM | [18] 25.9 µM

N#Cc1nc(-c2ccccn2)oc1N
inactive: [1] > 100 µM | [3] > 100 µM | [4] > 100 µM | [5] > 100 µM | [6] > 100 µM | [7] > 100 µM | [8] > 100 µM | [9] > 100 µM | [10] > 100 µM | [11] > 100 µM | [12] > 100 µM | [13] > 100 µM | [14] > 100 µM | [16] > 100 µM | [17] > 100 µM | [20] > 100 µM

CN(C)c1ccc(/C=C2\C[C@H]3[C@@H]4CC=C5C[C@@H](O)CC[C@]5(C)[C@H]4CC[C@]3(C)[C@H]2O)cc1
inactive: [1] 20.2 µM | [2] 10.2 µM | [4] 19.3 µM | [5] 8.09 µM | [6] 31 µM | [8] 16.2 µM | [19] 18.2 µM | [9] 17.6 µM | [10] 20.9 µM | [12] 8.2 µM | [13] 29.4 µM | [14] 14.4 µM | [15] 29.2 µM | [16] 17 µM | [18] 13.6 µM

CO[C@@H]1C=C[C@@]23c4cc5c(cc4C(O)N(CC2O)C3C1)OCO5 (stereo partly specified)
inactive: [1] 3.2 µM | [2] 9.23 µM | [3] 3.06 µM | [4] 3.68 µM | [5] 3 µM | [6] 1.8 µM | [7] 3.58 µM | [8] 3.87 µM | [19] 3.14 µM | [9] 2.01 µM | [10] 2.99 µM | [11] 3.66 µM | [12] 3.61 µM | [13] 4.43 µM | [14] 2.84 µM | [15] 2.82 µM | [16] 7.36 µM | [17] 3.09 µM | [18] 3.35 µM

CCN1CN(c2ccccc2)C2(CCN(CCCSc3ccc(F)cc3)CC2)C1=O
inactive: [1] 11.7 µM | [2] 9.4 µM | [3] 12.8 µM | [4] 5.97 µM | [5] 3.36 µM | [6] 10.8 µM | [7] 12 µM | [8] 12.7 µM | [19] 6.75 µM | [9] 2.82 µM | [11] 15 µM | [12] > 10 µM | [13] 4.31 µM | [15] 16.4 µM | [16] 13.9 µM | [18] 6.12 µM

COC(=O)c1cnn2c1n[n+]([O-])c1ccccc12
inactive: [1] > 100 µM | [3] > 100 µM | [4] 37.4 µM | [5] > 100 µM | [6] 68.5 µM | [7] > 100 µM | [8] > 100 µM | [19] > 100 µM | [9] 26.9 µM | [10] > 100 µM | [11] > 100 µM | [12] > 100 µM | [13] > 100 µM | [15] > 100 µM | [16] > 100 µM | [17] > 100 µM | [18] > 100 µM

O=C(O)c1ccc(/C=N/N=C2c3ccccc3-c3ccccc32)cc1
inactive: [1] 50.9 µM | [2] 31 µM | [3] 73.5 µM | [4] 42 µM | [5] 54.3 µM | [6] 32.9 µM | [7] 38.6 µM | [8] > 100 µM | [19] 67.1 µM | [9] 26.5 µM | [10] 27.4 µM | [11] 60.7 µM | [12] 37.4 µM | [13] 54.7 µM | [14] 41.2 µM | [16] 23.6 µM | [17] 40.6 µM | [18] 74 µM

COc1ccc(/C=C/c2ccnc3ccccc23)c(OC)c1
inactive: [1] 3.41 µM | [2] 4.34 µM | [3] 2.36 µM | [4] > 10 µM | [6] 3.61 µM | [7] > 10 µM | [8] 4.17 µM | [19] > 10 µM | [9] 3.66 µM | [10] 8.51 µM | [11] 6.62 µM | [12] 9.02 µM | [13] > 10 µM | [14] 6.05 µM | [15] 4.23 µM | [16] > 10 µM | [18] > 10 µM | [20] 6.82 µM

O=C(O)C#Cc1ccc([N+](=O)[O-])cc1
inactive: [1] > 100 µM | [2] > 100 µM | [3] > 100 µM | [4] > 100 µM | [5] > 100 µM | [6] > 100 µM | [7] > 100 µM | [8] > 100 µM | [19] > 100 µM | [9] > 100 µM | [10] > 100 µM | [12] > 100 µM | [13] > 100 µM | [14] > 100 µM | [16] > 100 µM | [17] > 100 µM | [18] > 100 µM | [20] > 100 µM

COc1ccc2c(C)cc(=O)oc2c1OC
inactive: [1] > 100 µM | [3] > 100 µM | [4] > 100 µM | [5] > 100 µM | [8] > 100 µM | [19] > 100 µM | [9] > 100 µM | [10] > 100 µM | [12] > 100 µM | [13] > 100 µM | [15] > 100 µM | [16] > 100 µM | [18] > 100 µM

N=C(N)N/N=C/c1c(-c2ccc(N)cc2)nc2sccn12
inactive: [1] 24.5 µM | [2] 26.9 µM | [3] 26.5 µM | [4] 20 µM | [5] 22.7 µM | [6] 16.2 µM | [7] 33.7 µM | [8] 21 µM | [19] 24.2 µM | [9] > 100 µM | [10] 30.5 µM | [11] 26.5 µM | [12] 25.4 µM | [13] 26.5 µM | [14] 26.4 µM | [16] 34.7 µM | [17] > 100 µM | [18] 21.2 µM

[O-][n+]1onc2c1-c1nonc1CC2
inactive: [1] 46.2 µM | [2] 25.3 µM | [3] 39.1 µM | [4] 48.6 µM | [5] 35.5 µM | [6] 34.5 µM | [7] 69.3 µM | [8] 27 µM | [19] 25.1 µM | [9] 27 µM | [10] 24.1 µM | [11] 31 µM | [12] 31.9 µM | [13] 28.2 µM | [14] 54.2 µM | [16] 36.5 µM | [18] 72.1 µM | [20] 77.1 µM
